The text below walks through data of patent US20260070945A1, “MACROCYCLIC IMMUNOMODULATORS” (Bristol-Myers Squibb Company, priority 2022, published 2026).

Where a SMILES comes first, the peptide text is derived from it. Bridges are numbered along the chain shown (N, C = ends). [ ]: non-standard residue; d: D form. The star is where a group is joined. ξ: configuration not given here. Phe(3-CF3) = N[C@@H](Cc1cccc(C(F)(F)F)c1)C(=O)O; Phe(4-COOH) = N[C@@H](Cc1ccc(C(=O)O)cc1)C(=O)O; Bip = N[C@@H](Cc1ccc(-c2ccccc2)cc1)C(=O)O; NH(CH2)14COOH = O=C(O)CCCCCCCCCCCCCCN*; Phe(3-Me) = Cc1cccc(C[C@H](N)C(=O)O)c1; NH(CH2)12COOH = O=C(O)CCCCCCCCCCCCN*; Val(3-OH) = CC(C)(O)[C@H](N)C(=O)O; Cha = N[C@@H](CC1CCCCC1)C(=O)O; Thr(3ξ) = CC(O)[C@H](N)C(=O)O; dDab = NCC[C@@H](N)C(=O)O; Carboxymethyl = O=C(O)C*; NMeA = CN[C@@H](C)C(=O)O; Dab = NCC[C@H](N)C(=O)O; AEEA = NCCOCCOCC(=O)O

T1 sequence (Q15116 25-288): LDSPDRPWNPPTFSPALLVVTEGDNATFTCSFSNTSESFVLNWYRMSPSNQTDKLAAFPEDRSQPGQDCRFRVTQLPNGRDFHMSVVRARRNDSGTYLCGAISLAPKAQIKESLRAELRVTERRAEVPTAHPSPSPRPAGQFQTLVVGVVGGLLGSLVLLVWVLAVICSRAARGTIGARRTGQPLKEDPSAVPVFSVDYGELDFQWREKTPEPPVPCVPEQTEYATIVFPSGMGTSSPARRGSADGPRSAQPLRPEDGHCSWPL

The experiment addresses T1, PD-1/PD-L1 interaction (PE-labeled human PD-L1-Ig binding to Jurkat cell line over-expressing human PD-1) (Homo sapiens, UniProt Q15116).
T1 construct: expressed in transfected cells; host or cells: Jurkat
The experiment can be described thus: Jurkat-PD-1 Cell Binding High-Content Screening Assay (CBA). Particulars: PE-labeled PD-L1-Ig 20 nM final, Jurkat-hPD-1 cells; read-out: Jurkat HPD1 PDL1 IC50. The procedure, abridged: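 Jurkat-hPD-1 cells (8×10^3/well) in DMEM with 10% fetal calf serum were preincubated with compound for 2 h at 37 °C. PE-labeled PD-L1-Ig was then added at 20 nM final for 1 h. Cells were fixed in paraformaldehyde with Hoechst 33342, washed and imaged by high-content imaging.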
Usually IC50 stands for the midpoint of a concentration-inhibition curve. On to `CC(=O)NCCCC[C@@H]1NC(=O)[C@H](C(C)(C)O)NC(=O)[C@H](CC2CCCCC2)NC(=O)[C@H](CCN)NC(=O)[C@@H](CC(C)C)NC(=O)[C@H](C)N(C)C(=O)[C@H](CCC(N)=O)NC(=O)[C@H](Cc2ccc(-c3ccccc3)cc2)NC(=O)[C@H](Cc2ccc(C(=O)O)cc2)NC(=O)[C@H](Cc2cccc(C(F)(F)F)c2)NC(=O)[C@H](CC(=O)O)NC(=O)[C@H](Cc2ccc(OCC(=O)O)cc2)NC(=O)[C@H](Cc2ccc(OCC(=O)O)cc2)NC(=O)CSC[C@@H](C(=O)N[C@H](CCN)C(=O)NCCCCCCCCCCCCC(=O)O)NC1=O` [Example 2599] ({CH2CO}-Y(Carboxymethyl)Y(Carboxymethyl)D[Phe(3-CF3)][Phe(4-COOH)][Bip]Q[NMeA][dL][Dab][Cha][Val(3-OH)]K(Ac)C[dDab]-{NH(CH2)12COOH}; thioether N-14), for which the IC50 worked out at 28.2 nM.

On to `CC(=O)NCCCC[C@@H]1NC(=O)[C@H](C(C)(C)O)NC(=O)[C@H](CC2CCCCC2)NC(=O)[C@H](CCN)NC(=O)[C@@H](CC(C)C)NC(=O)[C@H](C)N(C)C(=O)[C@H](CCCNC(=N)N)NC(=O)[C@H](Cc2ccc(-c3ccccc3)cc2)NC(=O)[C@H](Cc2ccc(C(=O)O)cc2)NC(=O)[C@H](Cc2cccc(C(F)(F)F)c2)NC(=O)[C@H](CC(=O)O)NC(=O)[C@H](Cc2ccc(OCC(=O)O)cc2)NC(=O)[C@H](Cc2ccc(OCC(=O)O)cc2)NC(=O)CSC[C@@H](C(=O)N[C@@H](CCN)C(=O)NCCCCCCCCCCCCC(=O)O)NC1=O` [Example 2600] ({CH2CO}-Y(Carboxymethyl)Y(Carboxymethyl)D[Phe(3-CF3)][Phe(4-COOH)][Bip]R[NMeA][dL][Dab][Cha][Val(3-OH)]K(Ac)C[Dab]-{NH(CH2)12COOH}; thioether N-14), for which the IC50 was 5.5 nM.

In the case of `CC(C)C[C@H]1NC(=O)[C@H](C)N(C)C(=O)[C@H](Cc2ccc(OCC(=O)O)cc2)NC(=O)[C@H](Cc2ccc(-c3ccccc3)cc2)NC(=O)[C@H](Cc2ccc(C(=O)O)cc2)NC(=O)[C@H](Cc2cccc(C(F)(F)F)c2)NC(=O)[C@H](CC(=O)O)NC(=O)[C@H](Cc2ccc(OCC(=O)O)cc2)NC(=O)[C@H](C(C)O)NC(=O)CSC[C@@H](C(=O)N[C@@H](CCN)C(=O)NCCCCCCCCCCCCCCC(=O)O)NC(=O)[C@H](CCC(=O)O)NC(=O)[C@H](C(C)C)NC(=O)[C@H](CC2CCCCC2)NC(=O)[C@H](CCN)NC1=O` (stereo partly drawn) [Example 2602] ({CH2CO}-[Thr(3ξ)]Y(Carboxymethyl)D[Phe(3-CF3)][Phe(4-COOH)][Bip]Y(Carboxymethyl)[NMeA][dL][Dab][Cha]VEC[Dab]-{NH(CH2)14COOH}; thioether N-14), the IC50 worked out at 192 nM.

Consider `Cc1cccc(C[C@@H]2NC(=O)[C@H](CC(=O)O)NC(=O)[C@H](Cc3ccc(OCC(=O)O)cc3)NC(=O)[C@H](C(C)O)NC(=O)CSC[C@@H](C(=O)N[C@@H](CCN)C(=O)NCCOCCOCC(=O)NCCCCCCCCCCCCCCC(=O)O)NC(=O)[C@H](CCC(=O)O)NC(=O)[C@H](C(C)C)NC(=O)[C@H](CC3CCCCC3)NC(=O)[C@H](CCN)NC(=O)[C@@H](CC(C)C)NC(=O)[C@H](C)N(C)C(=O)[C@H](Cc3ccc(OCC(=O)O)cc3)NC(=O)[C@H](Cc3ccc(-c4ccccc4)cc3)NC(=O)[C@H](Cc3ccc(C(=O)O)cc3)NC2=O)c1` (stereo partly drawn) [Example 2603] ({CH2CO}-[Thr(3ξ)]Y(Carboxymethyl)D[Phe(3-Me)][Phe(4-COOH)][Bip]Y(Carboxymethyl)[NMeA][dL][Dab][Cha]VEC[Dab][AEEA]-{NH(CH2)14COOH}; thioether N-14), for which the IC50 came out at 405 nM.
